Reference: patent publication US20260015350A1, “AZAQUINAZOLINE PAN-KRAS INHIBITORS” (Mirati Therapeutics, Inc., priority 2022, published 2026)

Key:
KRas^G12D = target: T1, KRas^G12D (Homo sapiens, UniProt P01116, G12D); assay: KRas binding assay (TR-FRET tracer displacement), KRas G12D
T1 construct: Biotinylated KRas (corresponding to amino acids 1-169, produced at Accelegan Inc.); biotin (biotinylated); purchased Accelegan Inc

KRas^G12R = target: T2, KRas^G12R (Homo sapiens, UniProt P01116, G12R); assay: KRas binding assay (TR-FRET tracer displacement), KRas G12R
T2 construct: Biotinylated KRas (corresponding to amino acids 1-169, produced at Accelegan Inc.); biotin (biotinylated); purchased Accelegan Inc
T2 sequence (P01116 1-169 isoform P01116-2 G12R): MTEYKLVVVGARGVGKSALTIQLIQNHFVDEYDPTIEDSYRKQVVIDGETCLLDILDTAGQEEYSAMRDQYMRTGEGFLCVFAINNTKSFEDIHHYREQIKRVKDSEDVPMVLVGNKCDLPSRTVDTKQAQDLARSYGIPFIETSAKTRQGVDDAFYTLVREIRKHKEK

KRas^G12V = target: T3, KRas^G12V (Homo sapiens, UniProt P01116, G12V); assay: KRas binding assay (TR-FRET tracer displacement), KRas G12V
T3 construct: Biotinylated KRas (corresponding to amino acids 1-169, produced at Accelegan Inc.); biotin (biotinylated); purchased Accelegan Inc
T3 sequence (P01116 1-169 isoform P01116-2 G12V): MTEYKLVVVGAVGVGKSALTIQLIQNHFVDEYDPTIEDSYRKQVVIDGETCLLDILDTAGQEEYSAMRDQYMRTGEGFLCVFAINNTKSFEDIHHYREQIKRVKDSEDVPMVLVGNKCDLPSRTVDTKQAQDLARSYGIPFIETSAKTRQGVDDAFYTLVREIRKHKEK

[1] = test system: KRas-mediated phosphorylation of ERK in MKN1 cells; assay: Inhibition of KRas-mediated phosphorylation of ERK (Cisbio HTRF pERK), MKN1 cells; assay type: cell-based; conditions: Homo sapiens, MKN-1
Protocol: (§1) Inhibition of KRas Phosphorylation of ERK (HTRF) by Exemplary Compounds of Formula (I)
(§2) Cisbio HTRF Advanced PERK Assay Catalog #64AERPEH
(§3) Day 1: Seed 6,000 cells/well-25 μl/well in 384-well white solid bottom plate; RPM1_10% FBS. Incubate overnight at 37° C./5% CO2.
(§4) Incubate for 4 hours at room temperature covered.
(§5) Read HTRF using ClarioStar

[2] = test system: KRas-mediated phosphorylation of ERK in PSN1 cells; assay: Inhibition of KRas-mediated phosphorylation of ERK (Cisbio HTRF pERK), PSN1 cells; assay type: cell-based; conditions: Homo sapiens
Protocol: as §1, §2, §3, §4, §5

[3] = test system: KRas-mediated phosphorylation of ERK in AsPC-1 cells; assay: Inhibition of KRas-mediated phosphorylation of ERK (Cisbio HTRF pERK), AsPC-1 cells; assay type: cell-based; conditions: Homo sapiens, ASPC1, AsPC-1 cells; HTRF pERK
Procedure, shortened: (§6)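 Min control wells contained 0.2 uM Trametinib, while test compounds ran as 10 doses (3-fold, top 10 uM; 0.8% DMSO final) on cells for 3 hrs. After 40 mins lysis at 4° C, lysates were probed with HTRF antibodies for 2 hrs at room temperature.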

[4] = test system: KRas-mediated phosphorylation of ERK in H727 cells; assay: Inhibition of KRas-mediated phosphorylation of ERK (Cisbio HTRF pERK), H727 cells; assay type: cell-based; conditions: Homo sapiens, NCI-H727, H727 cells; HTRF pERK
Procedure, shortened: as §6

T1 sequence (P01116 1-169 isoform P01116-2 G12D): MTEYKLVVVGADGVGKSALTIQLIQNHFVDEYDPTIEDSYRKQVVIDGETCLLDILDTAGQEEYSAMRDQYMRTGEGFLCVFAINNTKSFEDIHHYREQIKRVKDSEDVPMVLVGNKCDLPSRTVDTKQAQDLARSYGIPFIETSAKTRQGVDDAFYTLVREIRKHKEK

SMILES | IC50 (KRas^G12D) | IC50 (KRas^G12R) | IC50 (KRas^G12V) | IC50 [1] | IC50 [2] | IC50 [3] | IC50 [4]
CCc1c(F)ccc2cc(O)cc(-c3ncc4c(N5CCC(c6ccc(=O)[nH]n6)C5)nc(OC[C@@]56CCCN5C[C@H](F)C6)nc4c3F)c12 (stereo partly drawn) [Example 608, 6-(1-(7-(8-ethyl-7-fluoro-3-hydroxynaphthalen-1-yl)-8-fluoro-2-(((2R,7aS)-2-fluorotetrahydro-1H-pyrrolizin-7a(5H)-yl)methoxy)pyrido[4,3-d]pyrimidin-4-yl)pyrrolidin-3-yl)pyridazin-3 (2H)-one] | 1250 nM | 267 nM | 88 nM | > 10000 nM | > 10000 nM | > 10000 nM | > 10000 nM
CCc1c(F)ccc2cc(O)cc(-c3ncc4c(N5CCC(N6C(=O)CCC6=O)C5)nc(OC[C@@]56CCCN5C[C@H](F)C6)nc4c3F)c12 (stereo partly drawn) [Example 615, 1′-(7-(8-ethyl-7-fluoro-3-hydroxynaphthalen-1-yl)-8-fluoro-2-(((2R,7aS)-2-fluorotetrahydro-1H-pyrrolizin-7a(5H)-yl)methoxy)pyrido[4,3-d]pyrimidin-4-yl)-[1,3′-bipyrrolidine]-2,5-dione] | 1990 nM | 421 nM | 222 nM | 1530 nM | > 10000 nM | 7210 nM | > 10000 nM
CCc1c(F)ccc2cc(O)cc(-c3ncc4c(N5CCCCC(S(N)(=O)=O)C5)nc(OC[C@@]56CCCN5C[C@H](F)C6)nc4c3F)c12 (stereo partly drawn) [Example 633, 1-(7-(8-ethyl-7-fluoro-3-hydroxynaphthalen-1-yl)-8-fluoro-2-(((2R,7aS)-2-fluorohexahydro-1H-pyrrolizin-7a-yl)methoxy)pyrido[4,3-d]pyrimidin-4-yl)azepane-3-sulfonamide] | 8850 nM | 6610 nM | 2820 nM | > 10000 nM | > 10000 nM | > 10000 nM | > 10000 nM
CCc1c(F)ccc2cc(O)cc(-c3ncc4c(N5CCC[C@H](c6ccnn6C)CC5)nc(OC[C@@]56CCCN5C[C@H](F)C6)nc4c3F)c12 [Example 634, 5-ethyl-6-fluoro-4-(8-fluoro-2-(((2R,7aS)-2-fluorotetrahydro-1H-pyrrolizin-7a(5H)-yl)methoxy)-4-((S)-4-(1-methyl-1H-pyrazol-5-yl)azepan-1-yl)pyrido[4,3-d]pyrimidin-7-yl)naphthalen-2-ol] | 2240 nM | 839 nM | 262 nM | 2980 nM | > 10000 nM | > 10000 nM | 6210 nM
CCc1c(F)ccc2cc(O)cc(-c3ncc4c(NS(=O)(=O)C[C@H]5CNCCO5)nc(OC[C@@]56CCCN5C[C@H](F)C6)nc4c3F)c12 [Example 637, N-(7-(8-ethyl-7-fluoro-3-hydroxynaphthalen-1-yl)-8-fluoro-2-(((2R,7aS)-2-fluorotetrahydro-1H-pyrrolizin-7a(5H)-yl)methoxy)pyrido[4,3-d]pyrimidin-4-yl)-1-((R)-morpholin-2-yl)methanesulfonamide] | 1220 nM | 2250 nM | 3790 nM | > 10000 nM | > 10000 nM | > 10000 nM | > 10000 nM

Compounds with a lower IC50 (KRas^G12D), results first:

IC50 (KRas^G12D) | IC50 (KRas^G12R) | IC50 (KRas^G12V) | IC50 [1] | IC50 [2] | IC50 [3] | IC50 [4] | SMILES
91 nM | 53 nM | 80 nM | 2350 nM | > 10000 nM | 2810 nM | 2290 nM | CCc1c(F)ccc2cc(O)cc(-c3ncc4c(N5CCCC6(CCCCO6)C5)nc(OC[C@@]56CCCN5C[C@H](F)C6)nc4c3F)c12 (stereo partly drawn) [Example 594, 5-ethyl-6-fluoro-4-(8-fluoro-2-(((2R,7aS)-2-fluorotetrahydro-1H-pyrrolizin-7a(5H)-yl)methoxy)-4-(1-oxa-8-azaspiro[5.5]undecan-8-yl)pyrido[4,3-d]pyrimidin-7-yl)naphthalen-2-ol]
< 2 nM | < 2 nM | < 2 nM | 92 nM | > 10000 nM | 1390 nM | 880 nM | CCc1c(F)ccc2cc(O)cc(-c3ncc4c(NCC5(C)CNS(=O)(=O)N5)nc(OC[C@@]56CCCN5C[C@H](F)C6)nc4c3F)c12 (stereo partly drawn) [Example 609, 3-(((7-(8-ethyl-7-fluoro-3-hydroxynaphthalen-1-yl)-8-fluoro-2-(((2R,7aS)-2-fluorohexahydro-1H-pyrrolizin-7a-yl)methoxy)pyrido[4,3-d]pyrimidin-4-yl)amino)methyl)-3-methyl-1,2,5-thiadiazolidine 1,1-dioxide]
83 nM | 17 nM | 16 nM | 208 nM | > 10000 nM | 5130 nM | 889 nM | CCc1c(F)ccc2cc(O)cc(-c3ncc4c(NCc5cnn(C(=O)N(C)C)c5N)nc(OC[C@@]56CCCN5C[C@H](F)C6)nc4c3F)c12 [Example 640, 5-amino-4-(((7-(8-ethyl-7-fluoro-3-hydroxynaphthalen-1-yl)-8-fluoro-2-(((2R,7aS)-2-fluorohexahydro-1H-pyrrolizin-7a-yl)methoxy)pyrido[4,3-d]pyrimidin-4-yl)amino)methyl)-N,N-dimethyl-1H-pyrazole-1-carboxamide]
864 nM | 195 nM | 235 nM | 2870 nM | > 10000 nM | > 10000 nM | > 10000 nM | CCc1c(F)ccc2cc(O)cc(-c3ncc4c(N5CCCC6(C[C@H](O)[C@H](O)CO6)C5)nc(OC[C@@]56CCCN5C[C@H](F)C6)nc4c3F)c12 (stereo partly drawn) [Example 642, (3R,4S)-8-(7-(8-ethyl-7-fluoro-3-hydroxynaphthalen-1-yl)-8-fluoro-2-(((2R,7aS)-2-fluorohexahydro-1H-pyrrolizin-7a-yl)methoxy)pyrido[4,3-d]pyrimidin-4-yl)-1-oxa-8-azaspiro[5.5]undecane-3,4-diol]
30 nM | 15 nM | 10 nM | 546 nM | > 10000 nM | 1460 nM | 1790 nM | CCc1c(F)ccc2cc(O)cc(-c3ncc4c(N[C@H](C)c5cc(C(=O)N(C)C)nn5C)nc(OC[C@@]56CCCN5C[C@H](F)C6)nc4c3F)c12 [Example 651, 5-((R)-1-((7-(8-ethyl-7-fluoro-3-hydroxynaphthalen-1-yl)-8-fluoro-2-(((2R,7aS)-2-fluorohexahydro-1H-pyrrolizin-7a-yl)methoxy)pyrido[4,3-d]pyrimidin-4-yl)amino)ethyl)-N,N,1-trimethyl-1H-pyrazole-3-carboxamide]
5 nM | 10 nM | 6 nM | 943 nM | 3240 nM | 1900 nM | 2380 nM | CCc1c(F)ccc2cc(O)cc(-c3ncc4c(N5CCCC6(CCNS(=O)(=O)N6)C5)nc(OC[C@@]56CCCN5C[C@H](F)C6)nc4c3F)c12 (stereo partly drawn) [Example 656, 8-(7-(8-ethyl-7-fluoro-3-hydroxynaphthalen-1-yl)-8-fluoro-2-(((2R,7aS)-2-fluorotetrahydro-1H-pyrrolizin-7a(5H)-yl)methoxy)pyrido[4,3-d]pyrimidin-4-yl)-2-thia-1,3,8-triazaspiro[5.5]undecane 2,2-dioxide]
